# Like-named read-outs stand apart in the source and are kept apart here.
# Key:
# Type in all cases: in vivo
# Pratylenchus coffeae = assay: Nematode control, nodules per plant: Pratylenchus coffeae; settings: 1 μM foliar application every 5 days, evaluation 35 days after, control 42
# Method: (§1) The solutions of the compounds were prepared in ethanol and diluted in water, up to a concentration of 1 μM for a foliar application. Applications were conducted every 5 days, spraying only the leafs with each compound. Ten plants were used for each treatment and the final evaluation was performed 35 days after, by quantifying the number of nodules per plant.
# Phytophthora parasitica = assay: Control of Phytophthora parasitica disease in tobacco (Pp-Nt); settings: 1 μM spraying every 24 hours for one week, water control 91
# Method: (§2) In order to compare the effect of the compounds of formula I to V on the control of diseases in different plants, experiments were conducted in tobacco, tomato and Arabidopsis thaliana plants inoculated with Phytophthora parasitica, Rhizoctonia solani, Alternaria solani, Nocardia sp and Botrytis cinerea, respectively. The compounds were applied by spraying, at a concentration of 1 μM, every 24 hours for one week. The plant mortality rate was determined for the disease produced by Phytophthora parasitica, Rhizoctonia solani and Nocardia sp, while the percentage of leaves with symptoms was determined for the infection by Alternaria solani. In the case of plants affected by Botrytis cinerea, the lesion diameter was measured. […] Each treatment included fifty plants. As control, plants treated with water were studied. The plants of each treatment were previously inoculated with the indicated pathogens, according to different inoculation protocols (Frontiers in Plant Science 3: 268, 1-6, 2012), and later they were treated with the compounds.
# Botrytis cinerea [1] = assay: Control of Botrytis cinerea disease in tomato (Bc-SI); settings: 1 μM spraying every 24 hours for one week, water control 7.4
# Method: as §2
# Nocardia sp = assay: Control of Nocardia sp disease in tobacco (N-Nt); settings: 1 μM spraying every 24 hours for one week, water control 58
# Method: as §2
# Rhizoctonia solani [2] = assay: Control of Rhizoctonia solani disease in tobacco (Rs-Nt); settings: 1 μM spraying every 24 hours for one week, water control 87
# Method: as §2
# Botrytis cinerea [3] = assay: Control of Botrytis cinerea disease in tobacco (Bc-Nt); settings: 1 μM spraying every 24 hours for one week, water control 6.7
# Method: as §2
# [4] = test system: Candidatus 'Liberibacter asiaticus'; settings: spraying every 15 days, 12 months after treatment, Citrus sinensis with HLB
# Rhizoctonia solani [5] = assay: Control of Rhizoctonia solani disease in tomato (Rs-SI); settings: 1 μM spraying every 24 hours for one week, water control 96
# Method: as §2
# Botrytis cinerea [6] = assay: Control of Botrytis cinerea disease in Arabidopsis (Bc-At); settings: 1 μM spraying every 24 hours for one week, water control 8.7
# Method: as §2
# Alternaria solani = assay: Control of Alternaria solani disease in tomato (As-SI); settings: 1 μM spraying every 24 hours for one week, water control 68
# Method: as §2
# Meloidogyne incognita = assay: Nematode control, nodules per plant: Meloidogyne incognita; settings: 1 μM foliar application every 5 days, evaluation 35 days after, control 34
# Method: as §1
# Radopholus similis = assay: Nematode control, nodules per plant: Radopholus similis; settings: 1 μM foliar application every 5 days, evaluation 35 days after, control 45
# Method: as §1
SMILES,Pc: number of nodules per plant (Pratylenchus coffeae),Pp-Nt: percentage of mortality (Phytophthora parasitica) [%],Bc-SI: mean of the diameter of the lesion (Botrytis cinerea [1]) [mm],N-Nt: percentage of mortality (Nocardia sp) [%],Rs-Nt: percentage of mortality (Rhizoctonia solani [2]) [%],Bc-Nt: mean of the diameter of the lesion (Botrytis cinerea [3]) [mm],Titers of the bacterium ([4]; 0.001 μM) [copies per reaction],Titers of the bacterium ([4]; 0.01 μM) [copies per reaction],Titers of the bacterium ([4]; 1 μM) [copies per reaction],Titers of the bacterium ([4]; 5 μM) [copies per reaction],Titers of the bacterium ([4]; 10 μM) [copies per reaction],Rs-SI: percentage of mortality (Rhizoctonia solani [5]) [%],Bc-At: mean of the diameter of the lesion (Botrytis cinerea [6]) [mm],As-SI: percentage of leaves with the disease symptoms (Alternaria solani) [%],Mi: number of nodules per plant (Meloidogyne incognita),Rs: number of nodules per plant (Radopholus similis)
"Cc1nc(N2CCN(C3CCCCC3)CC2)ncc1C(=O)N1CC2CC(O)C(O)CC2C1 (stereo not shown) [IIIF, 2-{[2-(4-cyclohexylpiperazin-1-yl)-4-methylpyrimidin-5-yl]carbonyl}-octahydro-1H-isoindole-5,6-diol]",0,0,2.5,0,0,1.5,658,5,4,68,3654,1,1.5,5,0,0
"CN1CCN(c2ncc(C(=O)N3CC4CC(O)C(O)CC4C3)cn2)CC1 (stereo not shown) [IIIA, 2-{[2-(4-methylpiperazin-1-yl)pyrimidin-5-yl]carbonyl}-octahydro-1H-isoindole-5,6-diol]",16,1,0.8,1,2,1.5,432,0,0,43,2365,3,2.4,1,2,11
"O=C(c1ccc(OC2CCN(CC(O)CO)CC2)cc1)N1CCC(C2CCCC2)C1 (stereo not shown) [IVG, 3-(4-{4-[(3-cyclopentylpyrrolidin-1-yl)carbonyl]phenoxy}piperidin-1-yl)propane-1,2-diol]",0,0,0.8,0,0,1.5,658,0,0,68,4562,0,2.4,7,0,0
"Cc1c2c(oc(=O)c1CC(=O)NCC(O)CO)C=CC1C=COC21 (stereo not shown) [IIM, N-(2,3-dihydroxypropyl)-2-{13-methyl-11-oxo-3,10-dioxatricyclo[7.4.0.0^{2,6}]trideca-1(9),4,7,12-tetraen-12-yl}acetamide]",0,0,0.8,0,0,0.9,524,0,0,54,8542,1,0.5,5,0,0
"CNC(=O)c1ccc2c(c1)NC(CC(=O)NC(CO)CO)CO2 (stereo not shown) [VA, 3-{[(1,3-dihydroxypropan-2-yl)carbamoyl]methyl}-N-methyl-3,4-dihydro-2H-1,4-benzoxazine-6-carboxamide]",2,1,0.8,2,4,1.5,524,1,5,54,5478,2,2.4,3,4,1
"O=C(CC1COc2ccc(C(=O)Nc3ccccc3)cc2N1)NC(CO)CO (stereo not shown) [VC, 3-{[(1,3-dihydroxypropan-2-yl)carbamoyl]methyl}-N-phenyl-3,4-dihydro-2H-1,4-benzoxazine-6-carboxamide]",0,0,0.8,0,0,0.3,432,0,4,43,6524,0,1.2,7,0,0
"CC1=COC2c3c(oc(=O)c(CC(=O)NCC(O)CO)c3C)C=CC12 (stereo not shown) [IIH, N-(2,3-dihydroxypropyl)-2-{5,13-dimethyl-11-oxo-3,10-dioxatricyclo[7.4.0.0^{2,6}]trideca-1(9),4,7,12-tetraen-12-yl}acetamide]",18,1,2.5,1,2,1.5,756,0,1,76,2365,3,1.5,1,2,16
